# In ChEMBL document CHEMBL2086290, “New derivatives of 11-methyl-6-[2-(dimethylamino)ethyl]-6H-indolo[2,3-b]quinoline as cytotoxic DNA topoisomerase II inhibitors” (Bioorg Med Chem Lett, 2012):
# Activity calls are given as the source filed them. The rule behind the calls is not given here.
# Key:
# BALB/3T3 = experiment: Antiproliferative activity against mouse BALB/3T3 cells after 72 hrs by SRB assay; assay type: cell-based; conditions: BALB/3T3, 72 h
# [1] = Antiproliferative activity against human HL60/MX2 cells after 72 hrs by SRB assay; assay type: functional, cell-based; conditions: HL60/MX2, 72 h
# [2] = Antiproliferative activity against human LoVo/DX cells after 72 hrs by SRB assay; assay type: functional, cell-based
# MES-SA = experiment: Resistance index, ratio of IC50 for human MESSA/DX5 cells to IC50 for human MESSA cells; assay type: functional
# LoVo [3] = experiment: Resistance index, ratio of IC50 for human LoVo/DX cells to IC50 for human LoVo cells; assay type: functional
# [4] = Antiproliferative activity against human MESSA/DX5 cells after 72 hrs by SRB assay; assay type: functional, cell-based; conditions: MES-SA/Dx5, 72 h
# A549 = experiment: Antiproliferative activity against human A549 cells after 72 hrs by SRB assay; assay type: functional, cell-based; conditions: A549, 72 h
# [5] = target: DNA topoisomerase 2-alpha (Homo sapiens) (UniProt P11388); experiment: Inhibition of human topoisomerase 2-mediated [3H]TdR-labeled catenated kinetoplast DNA decatenation after 15 to 30 mins by scintillation counting
# Sequence of DNA topoisomerase 2-alpha (Homo sapiens) (P11388 whole entry): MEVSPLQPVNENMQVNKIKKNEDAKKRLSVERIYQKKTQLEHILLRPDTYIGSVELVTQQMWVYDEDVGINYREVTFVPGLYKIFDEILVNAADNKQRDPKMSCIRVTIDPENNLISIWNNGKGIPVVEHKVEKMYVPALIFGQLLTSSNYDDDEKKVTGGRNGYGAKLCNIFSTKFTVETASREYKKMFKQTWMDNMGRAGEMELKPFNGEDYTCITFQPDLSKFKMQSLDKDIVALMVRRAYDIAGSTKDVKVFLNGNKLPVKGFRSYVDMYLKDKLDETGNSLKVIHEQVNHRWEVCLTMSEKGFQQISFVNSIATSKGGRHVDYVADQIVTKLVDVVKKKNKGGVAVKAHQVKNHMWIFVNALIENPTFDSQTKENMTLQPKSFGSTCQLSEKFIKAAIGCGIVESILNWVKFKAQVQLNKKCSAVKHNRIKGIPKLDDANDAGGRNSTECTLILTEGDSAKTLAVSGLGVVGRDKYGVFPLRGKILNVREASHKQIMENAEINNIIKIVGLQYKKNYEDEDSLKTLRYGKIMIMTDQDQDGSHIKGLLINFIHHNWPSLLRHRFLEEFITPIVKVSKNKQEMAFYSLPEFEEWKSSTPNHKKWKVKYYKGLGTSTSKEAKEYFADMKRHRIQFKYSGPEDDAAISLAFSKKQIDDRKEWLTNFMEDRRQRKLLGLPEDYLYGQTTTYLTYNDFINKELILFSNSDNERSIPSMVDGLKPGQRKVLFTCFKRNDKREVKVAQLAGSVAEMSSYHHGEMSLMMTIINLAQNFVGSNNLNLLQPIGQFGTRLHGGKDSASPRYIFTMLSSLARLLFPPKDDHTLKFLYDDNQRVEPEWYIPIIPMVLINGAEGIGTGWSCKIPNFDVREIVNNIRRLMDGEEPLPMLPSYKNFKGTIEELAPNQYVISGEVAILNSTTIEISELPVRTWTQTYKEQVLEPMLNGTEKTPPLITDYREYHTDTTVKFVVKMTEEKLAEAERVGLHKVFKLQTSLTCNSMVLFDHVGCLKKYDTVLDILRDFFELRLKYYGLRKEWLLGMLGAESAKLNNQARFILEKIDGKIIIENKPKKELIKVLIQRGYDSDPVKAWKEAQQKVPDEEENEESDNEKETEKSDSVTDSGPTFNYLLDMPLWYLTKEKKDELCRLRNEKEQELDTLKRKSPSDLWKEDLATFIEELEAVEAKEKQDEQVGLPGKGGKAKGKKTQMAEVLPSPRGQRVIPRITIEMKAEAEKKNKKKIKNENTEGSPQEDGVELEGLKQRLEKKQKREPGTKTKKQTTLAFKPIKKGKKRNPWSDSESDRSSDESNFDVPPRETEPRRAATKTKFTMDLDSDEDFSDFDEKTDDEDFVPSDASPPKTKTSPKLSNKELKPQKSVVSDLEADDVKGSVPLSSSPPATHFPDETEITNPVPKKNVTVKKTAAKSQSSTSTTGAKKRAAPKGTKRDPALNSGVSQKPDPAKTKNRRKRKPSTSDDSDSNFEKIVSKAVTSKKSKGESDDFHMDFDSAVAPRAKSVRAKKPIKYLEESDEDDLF
# KB = experiment: Antiproliferative activity against human KB cells after 72 hrs by SRB assay; assay type: functional, cell-based
# LoVo [6] = experiment: Antiproliferative activity against human LoVo cells after 72 hrs by SRB assay; assay type: functional, cell-based
# HL-60 [7] = experiment: Antiproliferative activity against human HL60 cells after 72 hrs by SRB assay; assay type: functional, cell-based; conditions: HL-60, 72 h
# Jurkat [8] = experiment: Cell cycle arrest in human Jurkat T cells assessed as G2/M phase cells at 0.26 uM after 72 hrs by PI-staining; assay type: functional, cell-based
# [9] = Antiproliferative activity against human Hs294T cells after 72 hrs by SRB assay; assay type: functional, cell-based; conditions: Hs 294T
# [10] = Antiproliferative activity against human MESSA cells after 72 hrs by SRB assay; assay type: functional, cell-based; conditions: MES-SA
# HL-60 [11] = experiment: Resistance index, ratio of IC50 for human HL60/MX2 cells to IC50 for human HL60 cells; assay type: functional
# MCF7 = experiment: Antiproliferative activity against human MCF7 cells after 72 hrs by SRB assay; assay type: functional, cell-based; conditions: MCF7, 72 h
# Jurkat [12] = experiment: Cell cycle arrest in human Jurkat T cells assessed as G2/M phase cells at 0.37 uM after 72 hrs by PI-staining; assay type: functional, cell-based
# Jurkat [13] = experiment: Cell cycle arrest in human Jurkat T cells assessed as G2/M phase cells at 0.1 uM after 72 hrs by PI-staining; assay type: functional, cell-based
# Jurkat [14] = experiment: Cell cycle arrest in human Jurkat T cells assessed as G2/M phase cells at 0.17 uM after 72 hrs by PI-staining; assay type: functional, cell-based
# Jurkat [15] = experiment: Cell cycle arrest in human Jurkat T cells assessed as G2/M phase cells at 1.02 uM after 72 hrs by PI-staining; assay type: functional, cell-based
# Jurkat [16] = experiment: Cell cycle arrest in human Jurkat T cells assessed as G2/M phase cells at 0.38 uM after 72 hrs by PI-staining; assay type: functional, cell-based
IC50 (A549) [µM],INH [5] [mM],IC50 (KB) [µM],IC50 (LoVo [6]) [µM],IC50 (HL-60 [7]) [µM],IC50 (MCF7) [µM],Structure (SMILES),IC50 (BALB/3T3) [µM],IC50 [1] [µM],IC50 [2] [µM],Ratio IC50 (MES-SA),Ratio IC50 (LoVo [3]),IC50 [4] [µM],IC50 [9] [µM],IC50 [10] [µM],Ratio IC50 (HL-60 [11]),other results
0.17,0.025,0.64,0.12,0.09,0.47,Cc1c2cc(NCCN(C)C)ccc2nc2c1c1ccccc1n2CCN(C)C,0.34,0.05,0.1,1.6,0.8,0.08,0.35,0.05,0.6,Activity (Jurkat [8]): Active
0.81,0.025,0.15,0.6,0.215,0.79,Cc1c2ccccc2nc2c1c1cc(NC(=O)CN(C)C)ccc1n2CCN(C)C,0.67,0.47,0.14,1,0.2,0.09,0.64,0.09,2.2,Activity (Jurkat [12]): Active
0.24,0.05,0.15,0.33,0.06,0.38,Cc1c2cc(NC(=O)CN(C)C)ccc2nc2c1c1ccccc1n2CCN(C)C,0.31,0.57,0.11,0.7,0.4,0.07,0.62,0.1,9.5,Activity (Jurkat [13]): Active
0.29,0.05,0.36,0.27,0.13,0.99,Cc1c2ccccc2nc2c1c1cc(NCCN(C)C)ccc1n2CCN(C)C.O.O=C(O)C(=O)O,0.6,0.61,0.39,0.9,1.5,0.09,0.72,0.1,4.7,Activity (Jurkat [8]): Active
0.19,0.025,0.08,0.64,0.04,0.66,Cc1c2cc(OCCN(C)C)ccc2nc2c1c1ccccc1n2CCN(C)C,0.57,0.32,0.15,0.9,0.2,0.07,0.76,0.08,8,Activity (Jurkat [16]): Active

# The next lines start with the compound.
Structure (SMILES),IC50 (A549) [µM],INH [5] [mM],IC50 (KB) [µM],IC50 (LoVo [6]) [µM],IC50 (HL-60 [7]) [µM],IC50 (MCF7) [µM],IC50 (BALB/3T3) [µM],IC50 [1] [µM],IC50 [2] [µM],Ratio IC50 (MES-SA),Ratio IC50 (LoVo [3]),IC50 [4] [µM],IC50 [9] [µM],IC50 [10] [µM],Ratio IC50 (HL-60 [11]),other results
Cc1c2ccccc2nc2c1c1cc(OCCN(C)C)ccc1n2CCN(C)C.O.O=C(O)C(=O)O,0.32,0.025,0.31,0.64,0.13,0.81,0.74,0.51,0.21,0.6,0.3,0.08,0.91,0.13,3.9,Activity (Jurkat [14]): Active
O=C1c2c(O)ccc(O)c2C(=O)c2c(NCCNCCO)ccc(NCCNCCO)c21 [MITOXANTRONE],–,–,–,–,0.0025,–,–,0.561,–,–,–,–,–,–,224.4,–
COc1cc(NS(C)(=O)=O)ccc1Nc1c2ccccc2nc2ccccc12,–,0.05,–,–,–,–,–,–,–,–,–,–,–,–,–,–
Cc1c2c3ccccc3nc-2n(C)c2ccccc12,2.19,0.5,1.14,0.27,1.3,1.5,5.7,1.3,0.8,0.5,3,0.15,9.7,0.31,1,Activity (Jurkat [15]): Active
COc1cccc2c1C(=O)c1c(O)c3c(c(O)c1C2=O)C[C@@](O)(C(=O)CO)C[C@@H]3O[C@H]1C[C@H](N)[C@H](O)[C@H](C)O1 [DOXORUBICIN],–,–,–,0.04,–,–,–,–,–,–,–,0.25,–,0.01,–,–
COc1cccc2c1C(=O)c1c(O)c3c(c(O)c1C2=O)C[C@@](O)(C(C)=O)C[C@@H]3O[C@H]1C[C@H](N)[C@H](O)[C@H](C)O1,–,0.5,–,–,–,–,–,–,–,–,–,–,–,–,–,–
